The values below are quoted from earlier work in patent US20200281134A1, “GROWTH SUBSTRATE PRODUCT” (ROCKWOOL International A/S, priority 2015, published 2020).

Molecules are shown by their SMILES.

For the data set the following is noted: 3-hydroxy group.

Regarding `O=C1O[C@H]([C@@H](O)CO)C(O)=C1O` [ascorbic acid, Ascorbic acid], the pKa (usually the pH at which an ionisable group is half protonated) was 4.04.
